Entries after “also recorded” stand apart in the source; their conditions may differ. Like-named read-outs stand apart in the source and are kept apart here.
What was measured:
CYP2C9 supersomes [1] = molecular target: T1, CYP2C9 supersomes (Homo sapiens, UniProt P11712); assay: Metabolism assays with recombinant CYP2C9 supersomes (UPLC/HR-MS); conditions: incubation with recombinant CYP2C9 supersomes
[2] = system: HepG2 cells expressing CYP2C9; assay: Cytotoxicity (MTS assay) in HepG2 cells expressing CYP2C9; conditions: for min [c]: minimal concentration that increases the cytotoxicity: HepG2 cells expressing CYP2C9; for min [c]: minimal concentration that increases the cytotoxicity / Increased cytotoxicity in HepG2 cells expressing CYP2C9 (yes/no): threshold cell viability 80%; for Increased cytotoxicity in HepG2 cells expressing CYP2C9 (yes/no) / % living HepG2 cells expressing CYP2C9 after incubation with the min [c]: MTS assay; for Increased cytotoxicity in HepG2 cells expressing CYP2C9 (yes/no): compared with wild-type HepG2 cells; for % living HepG2 cells expressing CYP2C9 after incubation with the min [c]: at min [c] of the compound
CYP2C9 [3] = molecular target: T2, CYP2C9 (Homo sapiens, UniProt P11712); assay: Inhibition of CYP2C9 activity in HepG2 cells expressing CYP2C9 (P450-Glo CYP2C9 assay with Luciferin-H); conditions: for Inhibition of CYP2C9 activity in HepG2 cells (yes/no) / Dose-dependent inhibition (yes/no): HepG2 cells expressing CYP2C9; for Inhibition of CYP2C9 activity in HepG2 cells (yes/no): concentration range with cell viability > 80%; for Dose-dependent inhibition (yes/no): five-step dilution series 0.5 to 50 μM; for Any effect (inhibition of CYP2C9 activity and/or cytotoxicity on HepG2 cells expressing CYP2C9): over the range of concentrations used
T2 sequence (P11712 whole entry): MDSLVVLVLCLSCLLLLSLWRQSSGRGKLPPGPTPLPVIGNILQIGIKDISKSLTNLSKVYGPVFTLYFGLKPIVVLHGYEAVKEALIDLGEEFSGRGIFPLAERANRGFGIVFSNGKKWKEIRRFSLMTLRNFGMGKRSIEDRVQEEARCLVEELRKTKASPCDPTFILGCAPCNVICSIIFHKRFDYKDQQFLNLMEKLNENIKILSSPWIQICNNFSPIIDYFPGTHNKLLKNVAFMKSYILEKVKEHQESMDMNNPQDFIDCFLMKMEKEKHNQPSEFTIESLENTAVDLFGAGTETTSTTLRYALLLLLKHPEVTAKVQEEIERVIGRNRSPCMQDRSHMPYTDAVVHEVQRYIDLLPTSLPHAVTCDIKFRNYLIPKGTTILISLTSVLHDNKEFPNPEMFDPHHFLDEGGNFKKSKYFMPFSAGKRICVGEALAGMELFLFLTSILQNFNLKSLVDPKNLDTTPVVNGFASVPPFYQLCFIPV

CYP2C9 supersomes [4] = molecular target: T1, CYP2C9 supersomes; assay: Inhibition of CYP2C9 on recombinant supersomes (diclofenac 4-hydroxylation, LC/MS-MS); conditions: for IC50: IC50 values determined with CYP2C9 supersomes, substrate diclofenac 5 μM, recombinant supersomes
Method: (§1) A CYP2C9-specific substrate (diclofenac) and recombinant supersomes were incubated with and without the study compounds (according to the protocol optimized by the Service Provider Admescope (Finland)). The concentrations of the studied compounds were 0.3, 1, 3, 10, 20, 30, 50, 60, 70, 90 and 100 μM. […] The enzymatic reactions were started after 6 min of preincubation by adding NADPH and terminated after 15 min by adding ice-cold acetonitrile. The supernatant was collected and centrifuged for analyses. The samples were analyzed by LC/MS-MS to determine the level of metabolites in the absence and presence of a candidate molecule. Spiked standard samples were not used, but quantification based on relative peak areas was performed (solvent control = 100%). The disappearance was evaluated as relative LC/MS peak areas, and the 0-min time points were marked as 100%. The disappearance rate was used to calculate the half-life and in vitro clearance. For details of the method, see S2 Text.
(§2) Details of analytical method for inhibition tests using CYP2C9 supersomes and calculation of IC50
(§3) Test compound concentrations: Test compound Test concentrations (µM)
(§4) Diclofenac at 5 µM for CYP2C9
(§5) Substrates and concentrations:
(§6) Instrumentation: Waters Acquity UPLC + Thermo TSQ Endura triple quadrupole MS
(§7) The IC50 value for the test compound was determined by fitting following equation to the data
(§8) A% = percentual activity remaining
(§9) Top = the upper plateau of percentual activity (constrained to 100)
(§10) Bottom = the lower plateau of percentual activity (constrained to 0)
(§11) [I] = inhibitor concentration
(§12) (1 picture or pasted object on this page, not shown here)

CYP2C9 [5] = molecular target: T2, CYP2C9
[6] = system: HepG2 cells expressing CYP2C9; conditions: human
CYP2C9 [7] = molecular target: T2, CYP2C9; assay: Inhibition of CYP2C9 on recombinant supersomes (diclofenac 4-hydroxylation, LC/MS-MS); conditions: human, recombinant CYP2C9 supersomes, probe diclofenac 5 μM (4-hydroxylation), IC50 values determined with CYP2C9 supersomes, substrate diclofenac 5 μM; recombinant supersomes
Method: as §1, §2, §3, §4, §5, §6, §7, §8, §9, §10, §11, §12

T1 sequence (P11712 whole entry): as above

For `CCN1CCN(Cc2ccc(Nc3ncc(F)c(-c4cc(F)c5nc(C)n(C(C)C)c5c4)n3)nc2)CC1` [Abemaciclib], the “Metabolism by CYP2C9 (in words)” value (CYP2C9 supersomes [1]) was “metabolized by CYP2C9”, the “min [c]: minimal concentration that increases the cytotoxicity” value [2] was 5 µM and the “Increased cytotoxicity in HepG2 cells expressing CYP2C9 (yes/no)” value (shortened to “Increased cytotoxicity … (yes/no)”) [2] was “yes”. For the same molecule, the “% living HepG2 cells expressing CYP2C9 after incubation with the min [c]” value (“% living HepG2 cells expressing CYP2C9” for short) [2] was 30%, the “Inhibition of CYP2C9 activity in HepG2 cells (yes/no)” value (“Inhibition … in HepG2 cells (yes/no)” below) (CYP2C9 [3]) was “no” and the “Dose-dependent inhibition (yes/no)” value (CYP2C9 [3]) was “no”. The “Inhibition effect on CYP2C9 (in words)” value (CYP2C9 supersomes [4]; CYP2C9 supersomes) was “no direct inhibition; also recorded: No any inhibition effect” and the IC50 (CYP2C9 supersomes [4]) was greater than 100 µM.

`CC(C)Oc1ccc(S(=O)(=O)N2CCN(c3ccc(-c4ncco4)c(OCC(=O)O)c3)CC2)cc1` [Asapiprant] was tested, and the “Increased cytotoxicity … (yes/no)” value [2] was “no”, the “Inhibition … in HepG2 cells (yes/no)” value (CYP2C9 [3]) was “yes” and the “Dose-dependent inhibition (yes/no)” value (CYP2C9 [3]) was “yes”. It also gave an IC50 (CYP2C9 supersomes [4]) of 46 µM.

With `CC(=O)N1CCN(CCOc2ccc(C3CCN(C4=Nn5c(nnc5C(F)(F)F)CC4)CC3)cc2)CC1` [Azd3514] the “min [c]: minimal concentration that increases the cytotoxicity” value [2] was 20 µM, the “Increased cytotoxicity … (yes/no)” value [2] was “yes” and the “% living HepG2 cells expressing CYP2C9” value [2] was 60%. The “Inhibition … in HepG2 cells (yes/no)” value (CYP2C9 [3]) was “no” and the “Dose-dependent inhibition (yes/no)” value (CYP2C9 [3]) was “no”.

With `O=c1[nH]c2ccccc2c(=O)n1CCCN1CCN(c2cccc(Cl)c2)CC1` [Cloperidone] the “Metabolism by CYP2C9 (in words)” value (CYP2C9 supersomes [1]) was “metabolized by CYP2C9”, the “Cytotoxicity after incubation with HepG2 cells expressing CYP2C9 (in words)” value [2] was “increased cytotoxicity” and the “min [c]: minimal concentration that increases the cytotoxicity” value [2] was 100 µM. The “Increased cytotoxicity … (yes/no)” value [2] was “yes”, the “% living HepG2 cells expressing CYP2C9” value [2] was 40% and the “Inhibition … in HepG2 cells (yes/no)” value (CYP2C9 [3]) was “yes”. The “Dose-dependent inhibition (yes/no)” value (CYP2C9 [3]) was “yes”, the “Inhibition effect on CYP2C9 (in words)” value (CYP2C9 supersomes [4]; CYP2C9 supersomes) was “strongly inhibit” and the IC50 (CYP2C9 supersomes [4]) was 17.7 µM.

With `Cc1nc(Nc2ncc(C(=O)Nc3c(C)cccc3Cl)s2)cc(N2CCN(CCO)CC2)n1` [Dasatinib] the “min [c]: minimal concentration that increases the cytotoxicity” value [2] was 20 µM, the “Increased cytotoxicity … (yes/no)” value [2] was “yes” and the “% living HepG2 cells expressing CYP2C9” value [2] was 45%. For the same molecule, the “Inhibition … in HepG2 cells (yes/no)” value (CYP2C9 [3]) was “yes” and the “Dose-dependent inhibition (yes/no)” value (CYP2C9 [3]) was “yes”.

With `C[C@H](Nc1ncnc2[nH]cnc12)c1cc2cccc(Cl)c2c(=O)n1-c1ccccc1` [Duvelisib] the “Increased cytotoxicity … (yes/no)” value [2] was “no”, the “Inhibition … in HepG2 cells (yes/no)” value (CYP2C9 [3]) was “yes” and the “Dose-dependent inhibition (yes/no)” value (CYP2C9 [3]) was “yes”. For the same molecule, the IC50 (CYP2C9 supersomes [4]) was 52 µM.

In the case of `CN(c1nccc(=O)[nH]1)C1CCN(c2nc3ccccc3n2Cc2ccc(F)cc2)CC1` [Mizolastine], the “min [c]: minimal concentration that increases the cytotoxicity” value [2] is reported as 50 µM, the “Increased cytotoxicity … (yes/no)” value [2] is reported as “yes” and the “% living HepG2 cells expressing CYP2C9” value [2] is reported as 60%. The “Inhibition … in HepG2 cells (yes/no)” value (CYP2C9 [3]) was “no” and the “Dose-dependent inhibition (yes/no)” value (CYP2C9 [3]) was “no”.

`COc1ccc(OC(=O)N(CC(=O)O)Cc2ccc(OCCc3nc(-c4ccccc4)oc3C)cc2)cc1` [Muraglitazar] was tested, and the “Increased cytotoxicity … (yes/no)” value [2] was “no”, the “Inhibition … in HepG2 cells (yes/no)” value (CYP2C9 [3]) was “no” and the “Dose-dependent inhibition (yes/no)” value (CYP2C9 [3]) was “no”. The “Any effect (inhibition of CYP2C9 activity and/or cytotoxicity on HepG2 cells expressing CYP2C9)” value (CYP2C9 [3]) was “did not show any effect”.

With `CN(c1ncccc1CNc1nc(Nc2ccc3c(c2)CC(=O)N3)ncc1C(F)(F)F)S(C)(=O)=O` [Pf-562271] the “min [c]: minimal concentration that increases the cytotoxicity” value [2] was 10 µM, the “Increased cytotoxicity … (yes/no)” value [2] was “yes” and the “% living HepG2 cells expressing CYP2C9” value [2] was 65%. For the same molecule, the “Inhibition … in HepG2 cells (yes/no)” value (CYP2C9 [3]) was “yes” and the “Dose-dependent inhibition (yes/no)” value (CYP2C9 [3]) was “no”.

`Cc1ccccc1-n1c(/C=C/c2ccccn2)nc2ccccc2c1=O` [Piriqualone] was tested, and the “min [c]: minimal concentration that increases the cytotoxicity” value [2] was 75 µM, the “Increased cytotoxicity … (yes/no)” value [2] was “yes” and the “% living HepG2 cells expressing CYP2C9” value [2] was 0%. The “Inhibition … in HepG2 cells (yes/no)” value (CYP2C9 [3]) was “yes”, the “Dose-dependent inhibition (yes/no)” value (CYP2C9 [3]) was “yes” and the IC50 (CYP2C9 supersomes [4]) was 10.9 µM.

With `O=C1NCCN1CCN1CCC(c2cn(-c3ccc(F)cc3)c3ccc(Cl)cc23)CC1` [Sertindole] the “min [c]: minimal concentration that increases the cytotoxicity” value [2] was 10 µM, the “Increased cytotoxicity … (yes/no)” value [2] was “yes” and the “% living HepG2 cells expressing CYP2C9” value [2] was 60%. For the same molecule, the “Inhibition … in HepG2 cells (yes/no)” value (CYP2C9 [3]) was “yes”, the “Dose-dependent inhibition (yes/no)” value (CYP2C9 [3]) was “yes” and the IC50 (CYP2C9 supersomes [4]) was 40 µM.

For `CC(C)(C)C(=O)Oc1ccc(S(=O)(=O)Nc2ccccc2C(=O)NCC(=O)O)cc1` [Sivelestat], the “Increased cytotoxicity … (yes/no)” value [2] was “no”, the “Inhibition … in HepG2 cells (yes/no)” value (CYP2C9 [3]) was “no” and the “Dose-dependent inhibition (yes/no)” value (CYP2C9 [3]) was “no”. For the same molecule, the “Any effect (inhibition of CYP2C9 activity and/or cytotoxicity on HepG2 cells expressing CYP2C9)” value (CYP2C9 [3]) was “did not show any effect”.

`O=C(O[C@H]1CN2CCC1CC2)N(Cc1cc(F)c(F)c(F)c1)c1cccc(F)c1` [Tarafenacin] was tested, and the “Dose-dependent inhibition (yes/no)” value (CYP2C9 [5]) was “no”, the “Inhibition … in HepG2 cells (yes/no)” value (CYP2C9 [5]) was “yes” and the “% living HepG2 cells expressing CYP2C9” value [6] was 0%. The “min [c]: minimal concentration that increases the cytotoxicity” value [6] was 50 µM, the IC50 (CYP2C9 supersomes [4]) was greater than 100 µM and the “Inhibition effect on CYP2C9 (in words)” value (CYP2C9 supersomes [4]; recombinant enzyme) was “weak inhibition effect”.

`CCCSc1nc(N[C@@H]2C[C@H]2c2ccc(F)c(F)c2)c2nnn([C@@H]3C[C@H](OCCO)[C@@H](O)[C@H]3O)c2n1` [Ticagrelor] was tested, and the “Increased cytotoxicity … (yes/no)” value [2] was “no”, the “Inhibition … in HepG2 cells (yes/no)” value (CYP2C9 [3]) was “yes” and the “Dose-dependent inhibition (yes/no)” value (CYP2C9 [3]) was “yes”. It also gave an IC50 (CYP2C9 supersomes [4]) of 11.8 µM.

With `Clc1ccc(Nc2nnc(Cc3ccncc3)c3ccccc23)cc1` [Vatalanib] the “Metabolism by CYP2C9 (in words)” value (CYP2C9 supersomes [1]) was “metabolized by CYP2C9”, the “min [c]: minimal concentration that increases the cytotoxicity” value [2] was 20 µM and the “Increased cytotoxicity … (yes/no)” value [2] was “yes”. The “% living HepG2 cells expressing CYP2C9” value [2] was 50%, the “Inhibition … in HepG2 cells (yes/no)” value (CYP2C9 [3]) was “yes” and the “Dose-dependent inhibition (yes/no)” value (CYP2C9 [3]) was “yes”. The “Inhibition effect on CYP2C9 (in words)” value (CYP2C9 supersomes [4]; CYP2C9 supersomes) was “strongly inhibit”, the IC50 (CYP2C9 supersomes [4]) was less than 18 µM and the IC50 at 15 min (CYP2C9 [7]) was less than 0.3 µM.

With Bifeprofen the “min [c]: minimal concentration that increases the cytotoxicity” value [2] was 75 µM, the “Increased cytotoxicity … (yes/no)” value [2] was “yes” and the “% living HepG2 cells expressing CYP2C9” value [2] was 50%. For the same molecule, the “Inhibition … in HepG2 cells (yes/no)” value (CYP2C9 [3]) was “yes” and the “Dose-dependent inhibition (yes/no)” value (CYP2C9 [3]) was “yes”.

For Ciltoprazine, the “min [c]: minimal concentration that increases the cytotoxicity” value [2] was 75 µM, the “Increased cytotoxicity … (yes/no)” value [2] was “yes” and the “% living HepG2 cells expressing CYP2C9” value [2] was 0%. The “Inhibition … in HepG2 cells (yes/no)” value (CYP2C9 [3]) was “yes” and the “Dose-dependent inhibition (yes/no)” value (CYP2C9 [3]) was “no”.

— publication PMC8820617, “Machine learning-driven identification of drugs inhibiting cytochrome P450 2C9” (PLoS Computational Biology, 2022)
